Converted amounts (≈) assume the structure as drawn.
Tested on: Mycobacterium tuberculosis variant bovis
Assay: Antimycobacterial activity against Mycobacterium bovis BCG Pasteur ATCC 35734 by microplate alamar blue assay
Format: functional

Structure (SMILES) | MIC [µg/mL]
c1ccc(N2CCN(CCCN3c4ccccc4Sc4ccccc43)CC2)cc1 | > 64
CN1CCCCC1CCN1c2ccccc2Sc2ccc(Cl)cc21 (stereo unspecified) | 8 (≈ 22.3 µM)
CSc1ccc2c(c1)N(CCC1CCCCN1C(C)C)c1ccccc1S2 (stereo unspecified) | > 64
CSc1ccc2c(c1)N(CCCN1CCN(C3C4CC5CC(C4)CC3C5)CC1)c1ccccc1S2 (stereo unspecified) | > 64
CN1CCCCC1CCn1c2ccccc2c2ccccc21 (stereo unspecified) | > 64
CSc1ccc2c(c1)N(CCC1CCCCN1C)c1ccccc1S2 (stereo unspecified) [THIORIDAZINE] | 16 (≈ 43.2 µM)
Clc1ccc2c(c1)N(CCCN1CCSCC1)c1ccccc1S2 | > 64
CSc1ccc2c(c1)N(CCC1CCCCN1Cc1ccccc1)c1ccccc1S2 (stereo unspecified) | 8 (≈ 17.9 µM)
c1ccc2c(c1)ncn2CCC1CCCCN1 (stereo unspecified) | > 64
CN1CCN(CCCn2ccc3ccccc32)CC1 | > 64
CN1CCN(CCCN2c3ccccc3Sc3ccccc32)CC1 [PERAZINE] | 64 (≈ 189 µM)
Clc1ccc2c(c1)N(CCC1CCCCN1)c1ccccc1S2 (stereo unspecified) | 5.3 (≈ 15.4 µM)
c1ccc2c(c1)c1ccccc1n2CCC1CCCCN1 (stereo unspecified) | > 64
CSc1ccc2c(c1)N(CCCN1CCN(C34CC5CC(CC(C5)C3)C4)CC1)c1ccccc1S2 | 64 (≈ 127 µM)
CSc1ccc2c(c1)N(CCC1CCCCN1)c1ccccc1S2 (stereo unspecified) | 8 (≈ 22.4 µM)
CSc1ccc2c(c1)N(CCCN1CCSCC1)c1ccccc1S2 | > 64
c1ccc2c(c1)Sc1ccccc1N2CCC1CCCCN1 (stereo unspecified) | > 64
CN1CCCCC1CCN1c2ccccc2Sc2ccccc21 (stereo unspecified) | 64 (≈ 197 µM)
CCCN1CCCCC1CCN1c2ccccc2Sc2ccc(SC)cc21 (stereo unspecified) | 64 (≈ 161 µM)
Clc1ccc2c(c1)N(CCCN1CCN(c3ccccc3)CC1)c1ccccc1S2 | > 64
CSc1ccc2c(c1)N(CCCN1CCN(C)CC1)c1ccccc1S2 | 8 (≈ 20.7 µM)
CSc1ccc2c(c1)N(CCCN1CCN(c3ccccc3)CC1)c1ccccc1S2 | > 64
NNC(=O)c1ccncc1 [ISONIAZID] | 0.063 (≈ 0.459 µM)
CN1CCCCC1CCn1cnc2ccccc21 (stereo unspecified) | > 64
CSc1ccc2c(c1)N(C(=O)CN1CCN(C)CC1)c1ccccc1S2 | > 64
c1ccc2c(c1)ccn2CCC1CCCCN1 (stereo unspecified) | 64 (≈ 280 µM)
